# US9302999B2, “Substituted triazoles as herbicides” (E. I. DU PONT DE NEMOURS AND COMPANY, priority 2012, dated 2016)
# Assays:
# Type in all cases: in vivo
# [1] = system: barnyardgrass (Echinochloa crus-galli); experiment: Test A pre-/postemergence: barnyardgrass
# Outline: (§1)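 Injury is scored visually on a scale where 0 means no effect and 100 complete control, comparing treated with untreated plants after approximately ten greenhouse days. Both preemergence and postemergence applications are made at the same time.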
# [2] = system: velvetleaf (Abutilon theophrasti); experiment: Test A pre-/postemergence: velvetleaf
# Outline: as §1
# [3] = system: foxtail, giant (giant foxtail, Setaria faberii); experiment: Test A pre-/postemergence: foxtail, giant
# Outline: as §1
# [4] = system: barnyardgrass (Echinochloa crus-galli); experiment: Test B flooded paddy: barnyardgrass; conditions: Flood; 125 g ai/ha; applied to paddy water at 2-leaf stage; visually evaluated after 13 to 15 days
# Outline: (§2)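 Greenhouse assay lasting 13 to 15 days. Treatment was into water flooding pots 3 cm deep, at the 2-leaf stage, with that level sustained afterwards. Scores compare treated with control plants visually, 100 denoting complete control and 0 no effect; a dash marks no test result.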
# [5] = system: morningglory (Ipomoea spp.); experiment: Test A pre-/postemergence: morningglory
# Outline: as §1
# [6] = system: pigweed (Amaranthus retroflexus); experiment: Test A pre-/postemergence: pigweed
# Outline: as §1
# corn (Zea mays) = experiment: Test A pre-/postemergence: corn
# Outline: as §1
# [7] = system: sedge, umbrella (small-flower umbrella sedge Cyperus difformis); experiment: Test B flooded paddy: sedge, umbrella; conditions: Flood; 125 g ai/ha; applied to paddy water at 2-leaf stage; visually evaluated after 13 to 15 days
# Outline: as §2
# [8] = system: wheat (Triticum aestivum); experiment: Test A pre-/postemergence: wheat
# Outline: as §1
# [9] = system: ducksalad (Heteranthera limosa); experiment: Test B flooded paddy: ducksalad; conditions: Flood; 125 g ai/ha; applied to paddy water at 2-leaf stage; visually evaluated after 13 to 15 days
# Outline: as §2
# rice (Oryza sativa) = experiment: Test B flooded paddy: rice; conditions: Flood; 125 g ai/ha; applied to paddy water at 2-leaf stage; visually evaluated after 13 to 15 days
# Outline: as §2
# [10] = system: crabgrass, large (large crabgrass, Digitaria sanguinalis); experiment: Test A pre-/postemergence: crabgrass, large
# Outline: as §1
# [11] = Postemergence, 125 g ai/ha, 0 to 100 scale, 0 is no effect, 100 is complete control
# [12] = Postemergence, 500 g ai/ha, 0 to 100 scale, 0 is no effect, 100 is complete control
# [13] = Preemergence, 125 g ai/ha, 0 to 100 scale where 0 is no effect and 100 is complete control
# [14] = Preemergence, 500 g ai/ha, 0 to 100 scale (0 no effect, 100 complete control)
SMILES,"Plant response rating, Barnyardgrass [1, 11]","Barnyardgrass plant response rating [1, 12]","Plant response rating, Barnyardgrass [1, 13]","Plant response rating, Barnyardgrass [1, 14]","Plant response rating, Velvetleaf [2, 11]","Velvetleaf plant response rating [2, 12]","Plant response rating, Velvetleaf [2, 13]","Plant response rating, Velvetleaf [2, 14]","Plant response rating, Foxtail, Giant [3, 11]","Foxtail, Giant plant response rating [3, 12]","Plant response rating, Foxtail, Giant [3, 13]","Plant response rating, Foxtail, Giant [3, 14]","Plant response rating, Barnyardgrass (0 to 100 scale, 0 is no effect, 100 is complete control) [4]","Plant response rating, Morningglory [5, 11]","Morningglory plant response rating [5, 12]","Plant response rating, Morningglory [5, 13]","Plant response rating, Morningglory [5, 14]","Plant response rating, Pigweed [6, 11]","Pigweed plant response rating [6, 12]","Plant response rating, Pigweed [6, 13]",also measured
CC(C)Cc1nn(-c2ccc(C(F)(F)F)cc2)nc1Oc1ccnc(C(F)(F)F)c1 [Compound 186],0,0,0,0,0,20,0,0,0,0,0,0,0,0,10,0,0,20,60,0,"Plant response rating, Pigweed [6, 14]: 0; Plant response rating, Corn (corn (Zea mays); [11]): 10; Corn plant response rating (corn (Zea mays); [12]): 20; Plant response rating, Corn (corn (Zea mays); [13]): 0; Plant response rating, Corn (corn (Zea mays); [14]): 0; Plant response rating, Sedge, Umbrella (0 to 100 scale, 0 is no effect, 100 is complete control) [7]: 0; Plant response rating, Wheat [8, 11]: 0; Wheat plant response rating [8, 12]: 0; Plant response rating, Wheat [8, 13]: 0; Plant response rating, Wheat [8, 14]: 0; Plant response rating, Ducksalad (0 to 100 scale, 0 is no effect, 100 is complete control) [9]: 0; Plant response rating, Rice (0 to 100 scale, 0 is no effect, 100 is complete control) (rice (Oryza sativa)): 0; Plant response rating, Crabgrass, Large [10, 11]: 0; Crabgrass, Large plant response rating [10, 12]: 0; Plant response rating, Crabgrass, Large [10, 13]: 0; Plant response rating, Crabgrass, Large [10, 14]: 0"
CC(C)Cc1nn(-c2ccc(C(F)(F)F)cc2)nc1Oc1ccnc(C(F)F)c1 [Compound 187],0,0,0,0,0,0,0,0,0,0,0,0,0,0,0,0,0,0,0,0,"Plant response rating, Pigweed [6, 14]: 0; Plant response rating, Corn (corn (Zea mays); [11]): 0; Corn plant response rating (corn (Zea mays); [12]): 0; Plant response rating, Corn (corn (Zea mays); [13]): 0; Plant response rating, Corn (corn (Zea mays); [14]): 0; Plant response rating, Sedge, Umbrella (0 to 100 scale, 0 is no effect, 100 is complete control) [7]: 0; Plant response rating, Wheat [8, 11]: 0; Wheat plant response rating [8, 12]: 0; Plant response rating, Wheat [8, 13]: 0; Plant response rating, Wheat [8, 14]: 0; Plant response rating, Ducksalad (0 to 100 scale, 0 is no effect, 100 is complete control) [9]: 0; Plant response rating, Rice (0 to 100 scale, 0 is no effect, 100 is complete control) (rice (Oryza sativa)): 0; Plant response rating, Crabgrass, Large [10, 11]: 0; Crabgrass, Large plant response rating [10, 12]: 0; Plant response rating, Crabgrass, Large [10, 13]: 0; Plant response rating, Crabgrass, Large [10, 14]: 0"
